{
  "source": "paper PMC9104438",
  "about": "“Application of a Fluorescence Anisotropy-Based Assay to Quantify Transglutaminase 2 Activity in Cell Lysates” (International Journal of Molecular Sciences, 2022)",
  "key": {"hTGase 2 [1]": {"biological_target": "T1, hTGase 2 (Homo sapiens, UniProt P21980)", "T1 sequence (P21980 1-687)": "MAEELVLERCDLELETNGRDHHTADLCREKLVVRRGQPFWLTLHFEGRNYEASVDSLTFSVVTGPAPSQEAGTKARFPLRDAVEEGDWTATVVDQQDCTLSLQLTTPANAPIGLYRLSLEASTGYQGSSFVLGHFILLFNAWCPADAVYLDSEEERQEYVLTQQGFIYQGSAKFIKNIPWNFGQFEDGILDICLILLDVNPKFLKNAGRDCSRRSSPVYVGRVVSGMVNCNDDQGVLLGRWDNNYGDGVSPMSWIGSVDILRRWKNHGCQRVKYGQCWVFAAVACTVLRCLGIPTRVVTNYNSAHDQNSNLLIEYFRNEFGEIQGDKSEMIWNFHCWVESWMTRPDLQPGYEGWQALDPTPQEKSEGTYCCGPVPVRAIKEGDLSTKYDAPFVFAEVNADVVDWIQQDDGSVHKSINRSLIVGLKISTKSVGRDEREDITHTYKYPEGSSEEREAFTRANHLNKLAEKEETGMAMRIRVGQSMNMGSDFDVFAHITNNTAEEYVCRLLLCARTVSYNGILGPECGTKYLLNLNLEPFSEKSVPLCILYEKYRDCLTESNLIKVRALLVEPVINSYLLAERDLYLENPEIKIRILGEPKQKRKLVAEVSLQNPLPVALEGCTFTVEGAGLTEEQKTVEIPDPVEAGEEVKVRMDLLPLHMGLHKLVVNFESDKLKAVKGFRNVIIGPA", "assay": "Fluorimetric activity assay (substrate Z-Glu(HMC)-Gly-OH)", "assay_type": "biochemical", "parameters": "purchased Zedira T022", "settings": "mean (SEM) of 2 experiments", "procedure": "The kinetic characterization of compounds 3 and 4 by means of their kinact/KI values was performed using a fluorimetric activity assay (substrate Z-Glu(HMC)-Gly-OH) as described recently."}, "hTGase 6 [2]": {"biological_target": "T2, hTGase 6 (Homo sapiens, UniProt O95932)", "T2 sequence (O95932 1-706)": "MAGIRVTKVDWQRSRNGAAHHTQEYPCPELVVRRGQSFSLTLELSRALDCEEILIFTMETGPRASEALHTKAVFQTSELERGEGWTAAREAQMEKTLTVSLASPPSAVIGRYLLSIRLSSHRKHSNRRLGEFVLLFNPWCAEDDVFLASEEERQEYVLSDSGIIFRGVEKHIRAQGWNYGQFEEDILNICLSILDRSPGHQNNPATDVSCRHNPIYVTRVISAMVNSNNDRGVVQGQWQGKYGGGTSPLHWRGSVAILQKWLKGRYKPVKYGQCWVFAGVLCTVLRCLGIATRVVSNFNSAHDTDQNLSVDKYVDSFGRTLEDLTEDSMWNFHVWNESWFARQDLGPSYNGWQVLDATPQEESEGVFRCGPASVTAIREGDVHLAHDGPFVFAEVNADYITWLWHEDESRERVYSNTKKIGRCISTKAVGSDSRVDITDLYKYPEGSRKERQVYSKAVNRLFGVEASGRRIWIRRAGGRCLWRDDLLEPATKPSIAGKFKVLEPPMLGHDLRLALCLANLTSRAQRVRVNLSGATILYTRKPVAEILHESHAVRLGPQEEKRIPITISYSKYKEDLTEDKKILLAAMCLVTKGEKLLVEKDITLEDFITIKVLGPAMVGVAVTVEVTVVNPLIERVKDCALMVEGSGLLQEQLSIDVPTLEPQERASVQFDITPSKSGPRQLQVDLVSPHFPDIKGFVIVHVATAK", "assay": "FA-based assay, characterization of irreversible inhibitors"}, "hFXIIIa": {"biological_target": "T3, hFXIIIa (Homo sapiens, UniProt P00488)", "T3 sequence (P00488 39-732 limits assumed)": "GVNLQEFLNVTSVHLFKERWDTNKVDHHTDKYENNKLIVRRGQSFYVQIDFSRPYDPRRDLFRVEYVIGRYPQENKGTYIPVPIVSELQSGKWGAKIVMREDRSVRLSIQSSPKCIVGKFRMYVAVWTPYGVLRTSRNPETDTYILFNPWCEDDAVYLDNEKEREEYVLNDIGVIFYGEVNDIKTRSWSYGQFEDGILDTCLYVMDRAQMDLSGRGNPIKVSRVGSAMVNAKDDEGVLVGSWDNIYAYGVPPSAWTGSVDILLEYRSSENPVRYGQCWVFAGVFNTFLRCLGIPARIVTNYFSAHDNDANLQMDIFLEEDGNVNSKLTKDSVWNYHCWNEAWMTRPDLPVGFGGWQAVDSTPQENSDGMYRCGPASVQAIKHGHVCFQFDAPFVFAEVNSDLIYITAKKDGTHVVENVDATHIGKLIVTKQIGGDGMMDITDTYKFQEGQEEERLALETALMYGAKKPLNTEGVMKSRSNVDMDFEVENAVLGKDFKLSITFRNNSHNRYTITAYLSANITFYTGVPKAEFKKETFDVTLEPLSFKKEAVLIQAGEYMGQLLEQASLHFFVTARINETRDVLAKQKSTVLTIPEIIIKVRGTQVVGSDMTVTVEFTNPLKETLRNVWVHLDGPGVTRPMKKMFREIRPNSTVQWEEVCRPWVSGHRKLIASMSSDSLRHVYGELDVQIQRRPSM", "assay": "FA-based assay, kinetic characterization of acyl donor DMC with R-I-Cad", "assay_type": "biochemical", "parameters": "purchased Zedira T070", "settings": "hFXIIIa 5 µg/mL, R-I-Cad 0.74 µM, mean (SEM)", "procedure": "(§1) For the kinetic characterization of DMC (Figure 1B) in the presence of a fixed concentration of R-I-Cad (0.74 µM), eight different concentrations of DMC (0.3–300 µM) were used (2–3 separate experiments, each performed in duplicate). The corresponding stock solutions of DMC and R-I-Cad were prepared in assay buffer A and DMSO, respectively. […] Values for Km, Ki and Vmax were calculated according to the equation of substrate inhibition (Equation (2)). (2) v=Vmax∗[S]/Km+[S]∗(1+[S]/Ki)"}, "hTGase 6 [3]": {"biological_target": "T2, hTGase 6", "assay": "FA-based assay, kinetic characterization of acyl donor DMC with R-I-Cad", "assay_type": "biochemical", "parameters": "purchased Zedira T021", "settings": "hTGase 6 5 µg/mL, R-I-Cad 0.74 µM, mean (SEM)", "procedure": "as §1"}, "hTGase 2 [4]": {"biological_target": "T1, hTGase 2", "parameters": "purchased Zedira T022; method as in PMID 29664627", "settings": "hTGase 2 5 µg/mL, R-I-Cad 0.74 µM, mean (SEM), cited from earlier work"}, "hTGase 2 [5]": {"biological_target": "T1, hTGase 2", "parameters": "purchased Zedira T022; method as in PMID 29664627", "settings": "fluorimetric activity assay; mean (SEM); cited from earlier work"}, "[6]": {"settings": "read-out: Ki (substrate inhibition)"}},
  "data": [
    {"compound": "C=CC(=O)NCCCC[C@H](NC(=O)Cc1ccccc1)C(=O)N1CCN(c2cccc(-c3cn(CCOCCOCCOCCNC(=O)CCCC[C@@H]4SC[C@@H]5NC(=O)N[C@@H]54)nn3)n2)CC1", "note": "[Compound 4, N-(2-(2-(2-(2-(4-(6-(4-(N^6-acryloyl-N^2-(2-phenylacetyl)-L-lysyl)piperazin-1-yl)pyridin-2-yl)-1H-1,2,3-triazol-1-yl)ethoxy)ethoxy)ethoxy)ethyl)-5-((3aS,4S,6aR)-2-oxohexahydro-1H-thieno[3,4-d]imidazol-4-yl)pentanamide]", "values": [
      {"measurement": "kinact/KI", "setting": "hTGase 2 [1]", "value": 7260, "unit": "M⁻¹ s⁻¹"},
      {"measurement": "IC50", "setting": "hTGase 6 [2]", "value": 21.8, "unit": "µM"}
    ]},
    {"compound": "C#Cc1cccc(N2CCN(C(=O)[C@H](CCCCNC(=O)C=C)NC(=O)Cc3ccccc3)CC2)n1", "note": "[Compound 3, N^α-Phenylacetyl-N^ε-acryloyl-L-lysine-4-(6-ethinylpyridin-2-yl)piperazide]", "values": [
      {"measurement": "kinact/KI", "setting": "hTGase 2 [1]", "value": 3450, "unit": "M⁻¹ s⁻¹"},
      {"measurement": "IC50", "setting": "hTGase 6 [2]", "value": 38.4, "unit": "µM"}
    ]},
    {"compound": "N,N-dimethylated casein [DMC]", "values": [
      {"measurement": "Km", "setting": "hFXIIIa", "value": 17.5, "unit": "µM"},
      {"measurement": "Ki", "setting": "hFXIIIa; [6]", "value": 135, "unit": "µM"},
      {"measurement": "Vmax", "setting": "hFXIIIa; pH 8.0, 30 °C", "value": "16.0 (1.1) mA mL s^−1 mg^−1"},
      {"measurement": "Km", "setting": "hTGase 6 [3]", "value": 16.6, "unit": "µM"},
      {"measurement": "Ki", "setting": "hTGase 6 [3]; [6]", "value": 189, "unit": "µM"},
      {"measurement": "Vmax", "setting": "hTGase 6 [3]; pH 8.0, 30 °C", "value": "27.1 (4.1) mA mL s^−1 mg^−1"},
      {"measurement": "Km", "setting": "hTGase 2 [4]", "value": 2.78, "unit": "µM"},
      {"measurement": "Ki", "setting": "hTGase 2 [4]; [6]", "value": 174, "unit": "µM"},
      {"measurement": "Vmax", "setting": "hTGase 2 [4]; pH 8.0, 30 °C", "value": "26.4 (2.8) mA mL s^−1 mg^−1"}
    ]},
    {"compound": "C=CC(=O)NCCCC[C@H](NC(=O)Cc1ccccc1)C(=O)N1CCN(c2ccc([N+](=O)[O-])nc2)CC1", "note": "[Compound 2]", "values": [
      {"measurement": "kinact/KI hTGase 2", "setting": "hTGase 2 [5]", "value": "8460 (710) ^c M^−1s^−1"},
      {"measurement": "IC50", "setting": "hTGase 6 [2]", "value": 19.5, "unit": "µM"}
    ]},
    {"compound": "C=CC(=O)NCCCC[C@H](NC(=O)Cc1ccccc1)C(=O)N1CCN(c2cccc(C)n2)CC1", "note": "[Compound 1]", "values": [
      {"measurement": "kinact/KI hTGase 2", "setting": "hTGase 2 [5]", "value": "4880 (20)^c M^−1s^−1"},
      {"measurement": "IC50", "setting": "hTGase 6 [2]", "value": "> 30", "unit": "µM"}
    ]}
  ]
}
